Test results published in PMC7044277 (Nature Communications, 2020).
Where “and” joins values, the source holds several entries; their conditions need not be identical. Identical values can stand only once.

Tests used:
Assay type in all cases: cell-based
[1] = target: T1, 320 non-olfactory GPCRs (Homo sapiens, UniProt P25024)
T1 construct: expressed in transfected cells; host or cells: HTLA cells

[2] = target: T2, 320 non-olfactory GPCRs (Homo sapiens, UniProt P30518)
T2 construct: expressed in transfected cells; host or cells: HTLA cells
T2 sequence (P30518 whole entry): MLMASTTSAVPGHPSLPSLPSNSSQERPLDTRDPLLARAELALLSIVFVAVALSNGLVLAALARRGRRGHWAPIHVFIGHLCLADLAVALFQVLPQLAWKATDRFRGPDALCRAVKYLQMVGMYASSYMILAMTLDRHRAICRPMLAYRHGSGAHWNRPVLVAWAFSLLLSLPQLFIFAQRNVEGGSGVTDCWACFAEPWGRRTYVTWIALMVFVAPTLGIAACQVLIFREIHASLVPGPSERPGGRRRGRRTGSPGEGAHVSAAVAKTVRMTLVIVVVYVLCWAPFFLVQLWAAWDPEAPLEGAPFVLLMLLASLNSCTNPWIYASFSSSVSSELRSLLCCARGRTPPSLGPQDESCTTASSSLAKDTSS

[3] = target: T3, 320 non-olfactory GPCRs (Homo sapiens, UniProt P43116); conditions: receptor PTGER2; replicate values, Fig_4g
T3 construct: expressed in transfected cells; host or cells: HTLA cells
T3 sequence (P43116 whole entry): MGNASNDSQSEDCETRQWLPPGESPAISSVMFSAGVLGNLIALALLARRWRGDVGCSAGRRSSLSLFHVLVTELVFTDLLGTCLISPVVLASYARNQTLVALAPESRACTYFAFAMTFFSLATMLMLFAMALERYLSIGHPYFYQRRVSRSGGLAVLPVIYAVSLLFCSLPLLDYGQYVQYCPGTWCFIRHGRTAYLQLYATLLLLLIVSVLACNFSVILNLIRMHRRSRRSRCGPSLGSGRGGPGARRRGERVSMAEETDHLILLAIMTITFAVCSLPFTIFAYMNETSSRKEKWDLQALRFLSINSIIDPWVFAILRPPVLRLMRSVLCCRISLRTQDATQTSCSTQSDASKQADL

[4] = target: T4, 320 non-olfactory GPCRs (Homo sapiens, UniProt P51679)
T4 construct: expressed in transfected cells; host or cells: HTLA cells
T4 sequence (P51679 whole entry): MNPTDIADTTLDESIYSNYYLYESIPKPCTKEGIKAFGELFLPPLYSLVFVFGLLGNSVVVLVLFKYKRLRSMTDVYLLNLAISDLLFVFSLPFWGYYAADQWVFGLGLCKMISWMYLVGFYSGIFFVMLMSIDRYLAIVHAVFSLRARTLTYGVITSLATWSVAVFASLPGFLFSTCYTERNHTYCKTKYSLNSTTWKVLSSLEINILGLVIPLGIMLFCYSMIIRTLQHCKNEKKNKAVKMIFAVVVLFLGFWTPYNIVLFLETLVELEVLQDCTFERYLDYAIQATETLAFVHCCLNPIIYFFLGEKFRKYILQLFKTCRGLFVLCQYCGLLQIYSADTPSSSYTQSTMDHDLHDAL

[5] = target: 5HT1D (Homo sapiens, UniProt P28221); assay: β-arrestin2 recruitment (Tango); conditions: agonist activity only at high concentrations
Chain of 5HT1D (P28221 whole entry): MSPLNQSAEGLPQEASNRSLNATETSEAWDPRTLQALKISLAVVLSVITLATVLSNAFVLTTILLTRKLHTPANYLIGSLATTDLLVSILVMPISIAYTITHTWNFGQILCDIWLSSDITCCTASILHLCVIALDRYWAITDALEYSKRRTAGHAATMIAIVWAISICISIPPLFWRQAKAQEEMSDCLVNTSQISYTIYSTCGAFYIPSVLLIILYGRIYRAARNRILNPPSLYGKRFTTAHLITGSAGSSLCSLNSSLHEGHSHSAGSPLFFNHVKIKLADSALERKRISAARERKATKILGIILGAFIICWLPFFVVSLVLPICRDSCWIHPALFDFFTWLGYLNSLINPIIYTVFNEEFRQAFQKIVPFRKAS
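Wherever Fold of Basal is given: compound tested at 1 µM final concentration.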
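Wherever GPCRome agonism screen response is given: fold over basal response of each receptor without drug.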

T1 sequence (P25024 whole entry): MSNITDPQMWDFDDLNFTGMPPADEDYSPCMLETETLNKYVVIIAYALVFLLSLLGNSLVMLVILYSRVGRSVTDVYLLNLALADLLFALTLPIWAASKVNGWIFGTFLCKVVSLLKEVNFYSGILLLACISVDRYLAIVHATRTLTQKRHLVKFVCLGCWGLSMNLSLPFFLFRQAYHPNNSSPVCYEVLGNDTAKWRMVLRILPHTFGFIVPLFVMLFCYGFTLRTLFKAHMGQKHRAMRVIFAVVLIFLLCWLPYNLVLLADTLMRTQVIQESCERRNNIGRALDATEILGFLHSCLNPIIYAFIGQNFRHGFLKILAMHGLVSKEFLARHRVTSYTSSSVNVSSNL

Row | SMILES | Fold of Basal [1] | Fold of Basal [2] | GPCRome agonism screen response [3] | Fold of Basal [4] | concentration at which the receptor is activated [5]
1 | CCOc1cccc2cc(C(C)NCC3(O)CCCCC3)oc12 (stereo not drawn) [O4LE6] | 1.143 and 1.163 and 1.159 and 1.512 | 1.01 and 0.8337 and 0.9883 and 1.294 | 0.6203 and 0.7336 and 1.113 and 1.811 | 1.013 and 0.8978 and 0.7406 and 0.6452 | 
2 | CCOc1cccc2cc([C@@H](C)NCC3(O)CCCCC3)oc12 [O4RE6] |  |  |  |  | over 1 μM
3 | CCOc1cccc2cc([C@H](C)NCC3(O)CCCCC3)oc12 [O4SE6] |  |  |  |  | over 1 μM
